According to patent US12234271B2 (Synthorx, Inc., priority 2019, dated 2025):

Key:
IL-2 receptor beta gamma = biological target: T1, IL-2 receptor beta gamma (Homo sapiens, UniProt P14784+P31785); experiment: PathHunter IL-2 Cytokine Receptor agonist assay, beta gamma; type: cell-based; settings: U2OS PathHunter cells IL-2Rbeta/gamma; mass of IL-2 polypeptide only, without mPEG or linker
T1 construct: host or cells: U2OS (PathHunter)
T1 sequence (P14784 27-551): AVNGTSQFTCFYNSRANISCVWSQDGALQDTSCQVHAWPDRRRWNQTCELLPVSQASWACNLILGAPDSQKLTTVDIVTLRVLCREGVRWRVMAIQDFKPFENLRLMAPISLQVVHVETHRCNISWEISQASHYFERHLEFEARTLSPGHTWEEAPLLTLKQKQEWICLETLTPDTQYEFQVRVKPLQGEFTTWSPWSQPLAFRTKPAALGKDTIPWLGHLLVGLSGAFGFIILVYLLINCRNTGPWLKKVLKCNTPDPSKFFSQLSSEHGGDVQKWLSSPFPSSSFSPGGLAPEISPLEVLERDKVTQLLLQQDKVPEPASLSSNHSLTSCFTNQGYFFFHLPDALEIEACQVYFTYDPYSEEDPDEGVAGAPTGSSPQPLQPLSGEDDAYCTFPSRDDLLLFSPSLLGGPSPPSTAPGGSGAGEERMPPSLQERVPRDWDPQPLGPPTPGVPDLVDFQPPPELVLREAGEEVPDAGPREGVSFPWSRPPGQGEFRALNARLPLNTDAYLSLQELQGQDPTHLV
T1 sequence (P31785 23-369): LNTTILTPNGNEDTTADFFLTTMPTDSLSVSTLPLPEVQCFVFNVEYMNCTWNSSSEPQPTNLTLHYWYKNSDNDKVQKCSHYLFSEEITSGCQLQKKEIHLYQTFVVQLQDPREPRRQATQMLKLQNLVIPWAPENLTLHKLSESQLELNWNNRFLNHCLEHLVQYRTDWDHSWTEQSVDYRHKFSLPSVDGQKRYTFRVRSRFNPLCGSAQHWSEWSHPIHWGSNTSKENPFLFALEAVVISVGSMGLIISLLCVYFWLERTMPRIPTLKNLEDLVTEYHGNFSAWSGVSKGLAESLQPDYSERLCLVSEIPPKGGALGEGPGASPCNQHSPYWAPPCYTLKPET
Description: (§1) For example, the compounds labelled “D20_30” in this example is the compound having SEQ ID NO: 4 in which the structure of Formula (II), Formula (III), or a mixture of Formula (II) and (III) was substituted at the D20 residue (SEQ ID NO: 67) with a PEG group having a molecular weight of 30 kDa. Similarly, the following compounds were tested in this Example:
(§2) A second cell line was engineered to express the IL-2Ralpha subunit.
(§3) PathHunter cell lines were expanded from freezer stocks according to standard procedures. Cells were seeded in a total volume of 20 μL into white walled, 384-well microplates and incubated for the appropriate time prior to testing. […] Intermediate dilution of sample stocks was performed to generate 5× sample in assay buffer. About 5 μL of 5× sample was added to cells and incubated at 37° C. for a period of from 6 hours to 16 hours depending on the assay. Vehicle concentration was 1%. […] For some assays, activity was detected using a high sensitivity detection reagent (PathHunter Flash Kit) to improve assay performance. […] Microplates were read following signal generation with a PerkinElmer Envision instrument for chemiluminescent signal detection.
(§4) Compound activity was analyzed using CBIS data analysis suite software (ChemInnovation, CA).

[1] = biological target: T2, IL-2 receptor alpha beta gamma (Homo sapiens, UniProt P01589+P14784+P31785); experiment: PathHunter IL-2 Cytokine Receptor agonist assay, alpha beta gamma; type: cell-based; settings: U2OS PathHunter cells with IL-2Ralpha; mass of IL-2 polypeptide only, without mPEG or linker
T2 construct: host or cells: U2OS (PathHunter)
T2 sequence (P01589 22-272): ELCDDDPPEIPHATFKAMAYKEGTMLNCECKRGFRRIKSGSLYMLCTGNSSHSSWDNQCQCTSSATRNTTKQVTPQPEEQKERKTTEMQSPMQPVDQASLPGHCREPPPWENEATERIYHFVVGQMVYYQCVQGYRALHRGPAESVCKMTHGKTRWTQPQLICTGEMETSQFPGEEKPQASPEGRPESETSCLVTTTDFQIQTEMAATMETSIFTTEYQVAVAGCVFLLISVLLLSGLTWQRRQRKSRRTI
T2 sequence (P14784 27-551): T1 sequence (P14784 27-551)
T2 sequence (P31785 23-369): T1 sequence (P31785 23-369)
Description: as §1, §2, §3, §4

[2] = system: white blood cell count (WBC), lymphocyte count; experiment: Hematology after single subcutaneous dose in Cynomolgus monkeys; type: in vivo, Cynomolgus monkey
Excerpt: Each of the conjugates described below, except H16_30 kDa and H16_50 kDa, had SEQ ID NO: 4 in which the indicated amino acid position is substituted with the structure of Formula (II), Formula (III), or a mixture of Formula (II) and (III), and they contain a PEG chain of the indicated size. For example, the variant labeled “L19_30 kDa” has SEQ ID NO: 4 in which the amino acid at position L19 is replaced by the structure of Formula (II), Formula (III), or a mixture of Formula (II) and (III), and contains a 30 kDa, linear mPEG group. For the H16_30 kDa and H16_50 kDa variants, the compounds had SEQ ID NO: 4 in which the indicated amino acid position is substituted with the structure of Formula (IV), Formula (V), or a mixture of Formula (IV) and […] a linear, mPEG group having a molecular weight of 30 kDa or 50 kDa, respectively.
Blood samples were taken from each animal at the following time points: Samples for hematology: Day −1, Day 1 (Predose), 3, 6, 10, 15 and 22. Samples for pharmacokinetics and pharmacodynamics: (Predose), 0.5, 1, 2, 4, 8, 24, 36, 48, 72, 96, 120, 144, 168, and 240, 360, 528 (Day 22) hours post-dose. Cytokine sample collection and analysis: Day −1, and Day 1 (Predose), 8, 24, 72, 120 and 168, 360, and 528 (Day 22) hours post-dose.

CD8+ Tcells = experiment: pSTAT5 signaling in human LRS-derived PBMC samples, CD8+ T cells (flow cytometry); type: cell-based; settings: from MFI plots
Description: (§5) Conjugates of Table 3 were synthesized by modification of SEQ ID NO. 1.
(§6) These studies were performed at PrimityBio LLC (Fremont, CA).

CTLL-2 = CTLL-2 proliferation; type: cell-based; settings: mouse CTLL-2
Excerpt: FIG. 4A-FIG. 4B show the dose response curves for pSTAT5 signaling in human LRS primary cell (FIG. 4A) and proliferation response in mouse CTLL-2 populations (FIG. 4B).

NK cells = experiment: pSTAT5 signaling in human LRS-derived PBMC samples, NK cells (flow cytometry); type: cell-based; settings: from MFI plots
Description: as §5, §6

Treg cells = experiment: pSTAT5 signaling in human LRS-derived PBMC samples, Treg cells (flow cytometry); type: cell-based; settings: for Fold increase in Treg EC50 vs native IL-2: compared to native IL-2 run in each individual experiment; for Treg cells, dose response EC50 for pSTAT5 signaling: human LRS samples, from MFI plots; for CD8+/Treg ratio: ratio of pSTAT5 EC50, human LRS samples
Description: as §5, §6

[3] = cited from earlier work

| CD8+ Tcells, dose response EC50 for pSTAT5 signaling (CD8+ Tcells) | NK cells, dose response EC50 for pSTAT5 signaling (NK cells) | Fold increase in Treg EC50 vs native IL-2 (Treg cells) | Treg cells, dose response EC50 for pSTAT5 signaling (Treg cells) | Substance | CTLL-2 proliferation EC50 (CTLL-2) | CD8+/Treg ratio (Treg cells) | further results |
| --- | --- | --- | --- | --- | --- | --- | --- |
| 15025734 pg/ml | 2312847 pg/ml | 148 | 11082 pg/ml | N88R: IL-2 variant of Table 3 labelled N88R, no PEG size given [reference compound] | 0.363 ng/mL | 1356 | – |
| 102255 pg/ml | 20537 pg/ml | 3 | 142 pg/ml | V91K: IL-2 variant of Table 3 labelled V91K, no PEG size given [reference compound] | 0.0995 ng/mL | 720 | – |

The next lines start with the substance.

| Substance | CD8+ Tcells, dose response EC50 for pSTAT5 signaling (CD8+ Tcells) | NK cells, dose response EC50 for pSTAT5 signaling (NK cells) | Fold increase in Treg EC50 vs native IL-2 (Treg cells) | Treg cells, dose response EC50 for pSTAT5 signaling (Treg cells) | CTLL-2 proliferation EC50 (CTLL-2) | CD8+/Treg ratio (Treg cells) | further results |
| --- | --- | --- | --- | --- | --- | --- | --- |
| H16_30kDa: SEQ ID NO: 4 with Formula (II), (III) or mixture at H16 (SEQ ID NO: 65), linear mPEG 30 kDa | – | – | – | – | – | – | Beta gamma EC50 (IL-2 receptor beta gamma): 5742 ng/mL; Alpha beta gamma EC50 [1]: 3.3 ng/mL |
| L19_30kDa: SEQ ID NO: 4 with Formula (II), (III) or mixture at L19 (SEQ ID NO: 66), 30 kDa linear mPEG | – | – | – | – | – | – | Date at the peak of lymphocytes ([2]; 0.03 mg/kg single subcutaneous dose): 6 days post; Date at the peak of lymphocytes ([2]; 0.16 mg/kg single subcutaneous dose): 6 days post |
| N88_30kDa: SEQ ID NO: 4 with Formula (II), (III) or mixture at N88 (SEQ ID NO: 70), linear mPEG 30 kDa | – | – | – | – | – | – | Date at the peak of lymphocytes ([2]; 0.37 mg/kg single subcutaneous dose): 6 days post |
| human transferrin: 679 amino acid polypeptide that is about 80 kDa in size | – | – | – | – | – | – | half-life [3]: 170 to 288 h |
